From US20220175762A1, “IMMUNE MODULATORY COMPOSITIONS AND METHODS FOR TREATING CANCERS” (Birdie Biopharmaceuticals, Inc., priority 2019, published 2022)

What was measured:
[1] = system: CD45^+ cell infiltration in C26 tumor; assay: Immunohistochemistry of CD45 positive cells in tumors of treated mice; assay type: in vivo; design: dose or concentration left out as unconfirmed; details: C26 tumor in Balb/c mice, tumor taken on second day of second weekly treatment, cyclophosphamide i.p., TLRL i.v., FIG. 2
Description: Histological characterization of CD45 positive cells were performed in treated mice. Tumor samples were obtained from mice treated with TLRL, cyclophosphamide or TLRL/cyclophosphamide. Histological sections were counterstained with hematoxylin and eosin (H&E).
Balb/c mice, 6-8 weeks of age, female, purchased from Vital River Beijing, C26 cells were injected s.c. in the back of anesthetized mice. Treatment was started when tumor volumes reached 100-120 mm^3, i.p. injections of cyclophosphamide or i.v. injections of 1.6 g of TLRL (resiquimod) or combination were given once weekly. On second day of second treatment, tissue specimens of the tumor from treated mice were surgically removed, fixed in 4% buffered formaldehyde for 24 h, processed into paraffin, then sectioned at 5 μm. For immunohistochemistry, tissue sections were deparaffinised followed by antigen-retrieval in Tris-EDTA buffer (0.01 M pH 9.0) at high temperature (water bath, 30 minutes at 98° C.). […] After washing with PBS three times, secondary antibody goat antibody rat HPR was applied. Standard DAB (3,3′-diaminobenzidine) kit was used for visualization and section was counterstained with H&E used according to the protocols recommended by the manufacturer.

[2] = system: C26 colon tumor cell line; assay: In vivo tumor cell killing, C26 syngeneic tumor model, cyclophosphamide with TLRL combination therapy; design: dose or concentration left out as unconfirmed; details: C26 cells s.c. in BALB/c mice; cyclophosphamide i.p., TLRL (resiquimod) i.v., or both; once weekly for three times; FIG. 1B
Description: FIG. 1A-D depicts evaluation of the antitumor effects of Cyclophosphamide/TLRL combination therapy in syngeneic tumor model. FIG. 1A: Scheme of therapy protocol developed to treat C26 tumor. The treatment was initiated at d10 with tumor size 100-120 mm^3 following tumor challenges, and was administered weekly for 3 cycles starting at day 10. FIG. 1B: Antitumor effects of systemic TLRL (Resiquimod) in C26 tumor model. 4×10^5 cells were inoculated subcutaneously in Balb/c mice. After the tumor was allowed to grow for 10 days, groups of 8 mice were treated with Vehicle or with intraperitoneally administration of 1 mg of Cyclophosphamide, or with intravenously administered 1.6 g of TLRL or combination therapy at the dose shown. The compound was administered weekly for three cycles. The data are represented by the median tumor volume measurements of each group. Data for each group of 8 mice are expressed as means±SD. Statistical comparisons were performed using Student's t-Test. […]
All BALB/c mice were maintained under specific pathogen free conditions and used between 6-16 weeks of age in accordance to the animal experimental guidelines set by the Institutional Animal Care and Use Committee. […] Tumor volumes were measured along three orthogonal axes (x, y, and z) and calculated as tumor volume=(xyz)/2. […]

[3] = system: IFNα inducible genes MX2, ISG15 and IRF7; assay: IFNα inducible gene expression (quantitative RT-PCR) in draining lymph nodes and spleen of treated mice; assay type: in vivo; details: draining LNs and spleen of C26 tumor-bearing Balb/c mice, second day of second weekly treatment, FIG. 3
Description: Expression of IFNα inducible genes in dLN and spleen of treated mouse. RNA was isolated from draining lymph nodes and spleen after second treatment with TLRL or cyclophosphamide or combination therapy and relative expression of IFNα inducible genes MX2, ISG15 and IRF7 were determined by quantitative RT-PCR. Values indicate the mRNA expression of indicated IFNα inducible genes relative to housekeeping gene Actin.
Balb/c mice, 6-8 weeks of age, female, purchased from Vital River Beijing, C26 cells were injected s.c. in the back of anesthetized mice. Treatment was started when tumor volumes reached 100-120 mm^3, i.p. injections of cyclophosphamide or i.v. injections of […] of TLRL (resiquimod) or a combination of the treatments were given once weekly. On second day of second treatment, (that is, on the eighth day) draining LNs and spleen from treated mice were dissected and RNA was extracted using TRIzol reagent. After cDNA was reversed-transcribed, the quantitative Real-Time PCR was performed and IFNα inducible gene expression data were normalized relative to geometric mean of […] housekeeping genes (Actin): […]

Structure (SMILES)	infiltration of CD45^+ cells in tumor microenvironment [1]	infiltration of CD45^+ cells in tumor microenvironment ([1]; listed as TLRL)	effect in reducing tumor volume [2]	IFNα inducible gene expression (MX2, ISG15, IRF7) relative to Actin [3]	IFNα inducible gene expression (MX2, ISG15, IRF7) relative to Actin ([3]; listed as TLRL)
CCOCc1nc2c(N)nc3ccccc3c2n1CC(C)(C)O [TLRL (resiquimod), 4-amino-2-(ethoxymethyl)-a,a-di-methyl-1H-imidazo[4,5-c]quinoline-1-ethanol]	significant numbers of CD45^+ cell were infiltrated	increased infiltration of activated immune cells (CD45^+)	similar	Upregulating IFNα inducible gene clusters were observed	increased IFNα inducible gene expression
O=P1(N(CCCl)CCCl)NCCCO1 (stereo not drawn) [cyclophosphamide]			similar		
